# Reference: patent publication US11712438B2, “Phenyl derivatives as PGE2 receptor modulators” (IDORSIA PHARMACEUTICALS LTD, priority 2017, dated 2023)
# pIC50: −log10 of the molar value.
# Experiments:
# Assay in all cases: cell-based
# EP2 = EP2 (Homo sapiens, UniProt P43116);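 note: SF295 glioblastoma cells with endogenous EP2 only, PGE2-stimulated cAMP accumulation read by HTRF competitive immunoassay, 45 min pre-incubation then 30 min at room temperature, IBMX in buffer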
# Method: The antagonistic activities of the compounds of formula (I) on the EP2 and EP4 receptors are also determined in accordance with the following experimental method.
# Human tumor cell lines expressing endogenously either EP4 or EP2 are used and cAMP accumulation in cells upon PGE2 stimulation is monitored. SF295 glioblastoma cells express high endogenous EP2 and no EP4,whereas BT549 breast cancer cells, express high endogenous EP4 levels and very low EP2 levels.
# (§1) As a detection method for cAMP the HTRF (homogeneous time resolved fluorescence) Cisbio kit (HTRF cAMP dynamic 2 kit 20′000 tests Cisbio Cat. #62AM4PEC) was used, which is based on a competitive immunoassay using a Cryptate-labeled anti-cAMP antibody and d2-labeled cAMP. Native cAMP produced by cells or unlabeled cAMP (for the standard curve) compete with exogenously added d2-labeled cAMP (acceptor) for binding to monoclonal anti-cAMP-Eu3+ Cryptate (donor). A FRET signal (Fluorescence Resonance Energy Transfer) is obtained only if the labeled anti-cAMP antibody binds the d2 labelled cAMP, thus the specific signal (i.e. energy transfer) is inversely proportional to the concentration of cAMP in the standard or sample.
# The SF295 cells (NCI/No. 0503170) are detached from culture dishes with a cell dissociation buffer (Invitrogen, 13151-014), and collected in growing medium (GM: RPM11640 (Invitrogen 21875)/10% FCS, 1% Penicilin/streptomycin). Cells are counted washed and resuspended in assay buffer (AB; HBSS, 20 mM HEPES, 0.2% BSA; 2 mM IBMX). 4′000 cells in 5 μl of AB are seeded per well of a small volume 384 well plate (black with flat bottom, Greiner 784076).
# PGE2 (Cayman 14010, stock solution: 750 in DMSO) is used as agonist at 75 nM final concentration, corresponding to EC80.
# Two point five microliters of diluted compounds are transferred into the assay plate. Plate is pre-incubated 45 minutes at room temperature. Subsequently, 2.5 microliters of PGE2 (final conc. 75 nM) are transferred into the assay plate. Plate is incubated 30 minutes at room temperature.
# (§2) For each compound concentration the percentage of cAMP compared to DMSO control value as average±STDEV (each concentration is measured in duplicate) is calculated.
# PTRGER4 (EP4) = PTRGER4 (EP4) (Homo sapiens, UniProt P35408);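 note: assay plate preincubated 15 min at 37 °C, after which PGE2 was added at 20 nM final and incubation continued 120 min at 37 °C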
# EP4 = EP4 (Homo sapiens, UniProt P35408);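 note: inhibition of PGE2-evoked (6 nM) cAMP accumulation in BT549 breast cancer cells endogenously expressing EP4, cAMP read by HTRF competitive immunoassay after 30 min at room temperature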
# From the text: Human tumor cell lines expressing endogenously either EP4 or EP2 are used and cAMP accumulation in cells upon PGE2 stimulation is monitored.
# as §1
# The BT549 cells (NCI/No. 0507282) are detached from culture dishes with a cell dissociation buffer (Invitrogen, 13151-014), and collected in growing medium (GM: RPM11640 (Invitrogen 21875)/10% FCS, 1% Penicilin/streptomycin). Cells are counted washed and resuspended in assay buffer (AB; HBSS, 20 mM HEPES, 0.2% BSA; 2 mM IBMX). 4′000 cells in 5 μl of AB are seeded per well of a small volume 384 well plate (black with flat bottom, Greiner 784076).
# Stock solutions of test compounds are made at a concentration of 10 mM in DMSO, and serially diluted in DMSO to concentrations required for inhibition dose response curves (tested concentration range 30 μM-0.4 nM; 30 μM-0.015 nM or 1 μM-0.01 nM).
# PGE2 (Cayman 14010, stock solution: 6 μM in DMSO) is used as agonist at 6 nM final concentration, corresponding to EC80.
# Two point five microliters of diluted compounds are transferred into the assay plate. Plate is pre-incubated 45 minutes at room temperature. Subsequently, 2.5 microliters of PGE2 (final conc. 6 nM) are transferred into the assay plate. Plate is incubated 30 minutes at room temperature.
# as §2
# When compounds were measured multiple times, mean values are given.
# PTGER2 (EP2) = PTGER2 (EP2) (Homo sapiens, UniProt P43116)
# PTGER2 (EP2), sequence (P43116 whole entry): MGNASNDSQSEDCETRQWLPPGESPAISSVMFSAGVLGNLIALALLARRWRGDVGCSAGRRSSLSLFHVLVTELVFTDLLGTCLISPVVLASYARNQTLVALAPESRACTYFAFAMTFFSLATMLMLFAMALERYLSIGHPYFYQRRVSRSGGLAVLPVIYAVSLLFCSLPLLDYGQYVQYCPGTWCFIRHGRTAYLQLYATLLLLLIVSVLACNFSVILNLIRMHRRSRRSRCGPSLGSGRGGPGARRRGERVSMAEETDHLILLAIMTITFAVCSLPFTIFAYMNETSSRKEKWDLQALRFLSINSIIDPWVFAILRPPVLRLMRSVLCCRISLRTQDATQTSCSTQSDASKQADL
# EP4, sequence (P35408 whole entry): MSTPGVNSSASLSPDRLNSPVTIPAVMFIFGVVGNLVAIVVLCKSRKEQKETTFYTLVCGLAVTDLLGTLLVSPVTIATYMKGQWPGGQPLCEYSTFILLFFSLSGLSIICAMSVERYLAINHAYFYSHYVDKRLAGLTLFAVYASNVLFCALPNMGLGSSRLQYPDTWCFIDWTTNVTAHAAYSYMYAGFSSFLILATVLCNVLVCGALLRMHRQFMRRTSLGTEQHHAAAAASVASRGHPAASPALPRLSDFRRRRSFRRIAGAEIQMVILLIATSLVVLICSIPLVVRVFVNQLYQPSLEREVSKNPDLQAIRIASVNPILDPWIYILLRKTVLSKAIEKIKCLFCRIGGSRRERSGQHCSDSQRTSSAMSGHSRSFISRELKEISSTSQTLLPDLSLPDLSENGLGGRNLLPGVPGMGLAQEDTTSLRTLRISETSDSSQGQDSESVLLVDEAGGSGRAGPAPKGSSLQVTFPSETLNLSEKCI
# PTRGER4 (EP4), sequence (P35408 whole entry): as above
# EP2, sequence (P43116 whole entry): as the sequence (P43116 whole entry) above
SMILES,pIC50 (EP2),pIC50 (PTRGER4 (EP4)),pIC50 (EP4),pIC50 (PTGER2 (EP2))
"CCCOc1cc(-c2cc(NCCc3c(F)cc(Br)cc3F)ncn2)ccc1CC(=O)O [Example 248, (4-{6-[2-(4-Bromo-2,6-difluoro-phenyl)-ethylamino]-pyrimidin-4-yl}-2-propoxy-phenyl)-acetic acid]",6.20,6.51,6.52,6.65
"Cc1cc(-c2cc(NCCc3c(F)cc(Br)cc3F)ncn2)cc(C)c1O [Example 250, 4-{6-[2-(4-Bromo-2,6-difluoro-phenyl)-ethylamino]-pyrimidin-4-yl}-2,6-dimethyl-phenol]",6.07,6.77,6.05,7.11
"O=C(O)Cc1ccc(-c2cc(NCCc3c(F)cc(Br)cc3F)ncn2)cc1OC(F)F [Example 252, (4-{6-[2-(4-Bromo-2,6-difluoro-phenyl)-ethylamino]-pyrimidin-4-yl}-2-difluoromethoxy-phenyl)-acetic acid]",5.72,6.32,6.02,6.67
"O=C(O)c1ccc(-c2cc(NCCc3c(F)cc(Br)cc3F)ncn2)cc1OC1CC1 [Example 259, 4-{6-[2-(4-Bromo-2,6-difluoro-phenyl)-ethylamino]-pyrimidin-4-yl}-2-cyclopropoxy-benzoic acid]",7.35,6.45,7.12,7.34
"CCc1cc(-c2cc(NCCc3c(F)cc(Br)cc3F)ncn2)sc1CC(=O)O [Example 261, (5-{6-[2-(4-Bromo-2,6-difluoro-phenyl)-ethylamino]-pyrimidin-4-yl}-3-ethyl-thiophen-2yl)-acetic acid]",6.78,7.38,7.00,7.24
"O=C(O)c1cccc2cc(-c3cc(NCCc4c(F)cc(Br)cc4F)ncn3)[nH]c12 [Example 263, 2-{6-[2-(4-Bromo-2,6-difluoro-phenyl)-ethylamino]-pyrimidin-4-yl}-1H-indole-7-carboxylic acid]",6.78,7.14,7.14,7.51
"CCOc1cc(-c2cc(NCCc3c(F)cc(Br)cc3F)ncn2)[nH]c1C(=O)O [Example 268, 5-{6-[2-(4-Bromo-2,6-difluoro-phenyl)-ethylamino]-pyrimidin-4-yl}-3-ethoxy-1H-pyrrole-2-carboxylic acid]",7.68,6.53,6.65,7.72
"O=C(O)c1[nH]c(-c2cc(NCCc3c(F)cc(Br)cc3F)ncn2)cc1C1CC1 [Example 271, 5-{6-[2-(4-Bromo-2,6-difluoro-phenyl)-ethylamino]-pyrimidin-4-yl}-3-cyclopropyl-1H-pyrrole-2-carboxylic acid]",6.82,6.42,5.75,7.44
"CCOc1cc(-c2cc(NCCc3c(F)cc(Br)cc3F)ncn2)ccc1-c1cc(O)no1 [Example 273, 5-(4-{6-[2-(4-Bromo-2,6-difluoro-phenyl)-ethylamino]-pyrimidin-4-yl}-2-ethoxy-phenyl)-isoxazol-3-ol]",6.44,7.25,6.68,7.35
"CCOc1cc(-c2cc(NCCc3cc(Br)ccc3SC)ncn2)sc1-c1noc(=O)[nH]1 [Example 275, 3-(5-{6-[2-(5-Bromo-2-methylsulfanyl-phenyl)-ethylamino]-pyrimidin-4-yl}-3-ethoxy-thiophen-2-yl)-[1,2,4]oxadiazol-5(4H)-one]",6.79,7.05,7.74,6.90
"CNc1cc(-c2cc(NCCc3c(F)cc(Br)cc3F)ncn2)ccc1C(=O)NCCO [Example 276, 4-{6-[2-(4-Bromo-2,6-difluoro-phenyl)-ethylamino]-pyrimidin-4-yl}-N-(2-hydroxy-ethyl)-2-methylamino-benzamide]",7.23,7.43,7.14,7.64
"CNc1cc(-c2cc(NCCc3c(F)cc(Br)cc3F)ncn2)ccc1C(=O)NCCOC [Example 277, 4-{6-[2-(4-Bromo-2,6-difluoro-phenyl)-ethylamino]-pyrimidin-4-yl}-N-(2-methoxy-ethyl)-2-methylamino-benzamide]",6.66,7.17,6.62,7.13
CCn1cc(-c2cc(NCCc3c(F)cc(Br)cc3F)ncn2)cc1-c1noc(=O)[nH]1 [Example 278],6.82,7.38,7.05,7.19
"CCOc1cc(-c2cc(NCCc3c(F)cc(Br)cc3F)ncn2)sc1C(N)=O [Example 279, 5-{6-[2-(4-Bromo-2,6-difluoro-phenyl)-ethylamino]-pyrimidin-4-yl}-3-ethoxy-thiophene-2-carboxylic acid amide]",7.14,8.30,7.92,7.34
"CCc1cc(-c2cc(NCCc3c(F)cc(Br)cc3F)ncn2)sc1C(N)=O [Example 281, 5-{6-[2-(4-Bromo-2,6-difluoro-phenyl)-ethylamino]-pyrimidin-4-yl}-3-ethyl-thiophene-2-carboxylic acid amide]",7.33,7.43,7.09,7.25
"CCOc1cc(-c2cc(NCCc3c(F)cc(Br)cc3F)ncn2)ccc1Cc1noc(=O)[nH]1 [Example 282, 3-(4-{6-[2-(4-Bromo-2,6-difluoro-phenyl)-ethylamino]-pyrimidin-4-yl}-2-ethoxy-benzyl)-[1,2,4]oxadiazol-5(4H)-one]",5.99,7.08,6.42,6.87
"CCOc1cc(-c2cc(NCCc3c(F)cc(Br)cc3F)ncn2)ccc1Cc1noc(=S)[nH]1 [Example 283, 3-(4-{6-[2-(4-Bromo-2,6-difluoro-phenyl)-ethylamino]-pyrimidin-4-yl}-2-ethoxy-benzyl)-[1,2,4]oxadiazole-5(4H)-thione]",6.02,6.61,6.23,6.93

# More lines, now with the values ahead:
pIC50 (EP2),pIC50 (PTRGER4 (EP4)),pIC50 (EP4),pIC50 (PTGER2 (EP2)),SMILES
6.63,6.51,6.49,7.10,"O=c1[nH]c(-c2ccc(-c3cc(NCCc4c(F)cc(Br)cc4F)ncn3)cn2)no1 [Example 289, 3-(5-{6-[2-(4-Bromo-2,6-difluoro-phenyl)-ethylamino]-pyrimidin-4-yl}-pyridin-2-yl)-[1,2,4]oxadiazol-5(4H)-one]"
6.11,7.11,6.81,7.06,"COc1cc(-c2noc(=O)[nH]2)ccc1-c1cc(NCCc2c(F)cc(Br)cc2F)ncn1 [Example 291, 3-(4-{6-[2-(4-Bromo-2,6-difluoro-phenyl)-ethylamino]-pyrimidin-4-yl}-3-methoxy-phenyl)-[1,2,4]oxadiazol-5(4H)-one]"
6.05,7.39,6.49,6.86,"CCOc1c(C(N)=O)sc(-c2cc(NCCc3c(F)cc(Br)cc3F)ncn2)c1Cl [Example 293, 5-{6-[2-(4-Bromo-2,6-difluoro-phenyl)-ethylamino]-pyrimidin-4-yl}-4-chloro-3-ethoxy-thiophene-2-carboxylic acid amide]"
7.33,7.74,7.66,7.57,"CCOc1cc(-c2cc(NCCc3c(F)cc(Br)cc3F)ncn2)sc1-n1nn[nH]c1=O [Example 294, 1-(5-{6-[2-(4-Bromo-2,6-difluoro-phenyl)-ethylamino]-pyrimidin-4-yl}-3-ethoxy-thiophen-2-yl)-1,4-dihydro-tetrazol-5-one]"
7.08,8.70,8.70,7.92,"CCOc1cc(-c2cc(NCCc3c(F)cc(Br)cc3F)ncn2)sc1-c1noc(=S)[nH]1 [Example 295, 3-(5-{6-[2-(4-Bromo-2,6-difluoro-phenyl)-ethylamino]-pyrimidin-4-yl}-3-ethoxy-thiophen-2-yl)-[1,2,4]oxadiazole-5(4H)-thione]"
7.36,8.05,7.85,7.92,"CNc1cc(-c2cc(NCCc3c(F)cc(Br)cc3F)ncn2)ccc1-c1noc(=O)[nH]1 [Example 296, 3-(4-{6-[2-(4-Bromo-2,6-difluoro-phenyl)-ethylamino]-pyrimidin-4-yl}-2-methylamino-phenyl)-[1,2,4]oxadiazol-5(4H)-one]"
6.77,7.21,7.57,7.26,"CCCc1cc(-c2cc(NCCc3c(F)cc(Br)cc3F)ncn2)sc1CC(=O)O [Example 314, (5-{6-[2-(4-Bromo-2,6-difluoro-phenyl)-ethylamino]-pyrimidin-4-yl}-3-propyl-thiophen-2-yl)-acetic acid]"
7.77,7.42,7.55,7.60,"O=C(O)Cc1sc(-c2cc(NCCc3c(F)cc(Br)cc3F)ncn2)cc1OC(F)F [Example 315, (5-{6-[2-(4-Bromo-2,6-difluoro-phenyl)-ethylamino]-pyrimidin-4-yl}-3-difluoromethoxy-thiophen-2-yl)-acetic acid]"
